Results taken from publication PMC9947563, “Identification of the molecular determinants of antagonist potency in the allosteric binding pocket of human P2X4” (Frontiers in Pharmacology, 2023).
Positions count from the first letter of the chain named. Like-named read-outs stand apart in the source and are kept apart here. Values belong to the molecule of their own block, whether it stands above or below them.

What was measured:
human P2X4 open channel = tested on: human P2X4 open channel; parameters: method as in Bidula et al. (2022); conditions: ref Bidula et al. (2022); cited from earlier work
rP2X4 = conditions: cited from earlier work
mP2X4 = conditions: cited from earlier work
[1] = target: T1, rat P2X4 T312I (r4-T312I) (Rattus norvegicus, UniProt P51577, T312I); experiment: ATP-induced calcium influx (Fluo-4) in 1321N1 cells stably expressing rat P2X4 T312I; type: cell-based; conditions: 1321N1 cells, rat P2X4 T312I
T1 construct: expressed in transfected cells; host or cells: 1321N1 astrocytoma cells, stably transfected
T1 sequence (P51577 1-388 T312I): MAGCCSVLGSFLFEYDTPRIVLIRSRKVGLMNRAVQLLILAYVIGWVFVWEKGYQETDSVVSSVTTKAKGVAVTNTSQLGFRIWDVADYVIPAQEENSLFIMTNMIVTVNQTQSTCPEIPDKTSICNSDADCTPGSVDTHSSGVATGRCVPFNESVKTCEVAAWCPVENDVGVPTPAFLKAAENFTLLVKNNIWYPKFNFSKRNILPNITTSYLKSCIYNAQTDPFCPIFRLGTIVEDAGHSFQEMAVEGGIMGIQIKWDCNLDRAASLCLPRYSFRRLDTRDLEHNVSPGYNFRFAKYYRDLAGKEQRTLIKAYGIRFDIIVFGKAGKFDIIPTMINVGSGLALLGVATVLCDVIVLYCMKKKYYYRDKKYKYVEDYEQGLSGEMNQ
Source text: Plasmid encoding rat P2X4 (r4-WT) ([Royle et al., 2005]) was a kind gift from Ruth Murrell-Lagnado, whilst that encoding human P2X4 with a C-terminal (His)10 tag has been reported previously ([Young et al., 2008]). Plasmids containing rat P2X4 T312I (r4-T312I) and human P2X4 I312T mutants (h4-I312T) were generated using the QuikChange Lightning site-directed mutagenesis kit (Agilent) according to manufacturer’s instructions. Sequencing of the constructs and of the genomic DNA from stably transfected cells confirmed correct full coding sequences.
(§1) 1321N1 astrocytoma cells were cultured (at 37°C, 5% CO2) in Dulbecco’s modified Eagle’s medium (DMEM/F-12 with Glutamax) supplemented with 10% foetal bovine serum (FBS) and 200 unit/mL of penicillin and streptomycin antibiotics (Fisher Scientific). Stably transfected clones were grown in DMEM/F-12 with Glutamax medium supplemented with G-418 (Geneticin®, Fisher Scientific), 600 μg/mL and 150 μg/mL during selection and maintenance, respectively. FuGene HD Transfection Reagent (Promega) was used according to the manufacturer’s protocol for the generation of stable cell line expressing h4-WT, r4-WT, h4-I312T, and r4-T312I. Each cell line was then tested for P2X4 receptor expression by Western blot and for functionality using the Ca^2+ influx assay.
(§2) Cells were plated the day before assay into poly-lysine-coated 96-well plates at 40–55,000 cells/mL. To load cells with calcium-sensitive fluorescent dye, culture medium was replaced with modified Ringer’s buffer (140 mM NaCl, 10 mM HEPES, 10 mM Glucose, 1 mM MgCl2, 1 mM CaCl2, 2.5 mM KCl, 0.5% BSA, pH = 7.4) containing 2.6 μM FLUO4-AM (Fisher Scientific) and 250 μM probenecid (Sigma), and cells were incubated for 20–30 min. Prior to assay, buffer was replaced with fresh modified Ringer’s buffer containing probenecid but not the dye. […] A Fluoroskan Ascent FL plate reader (Fisher Scientific) equipped with a solution dispenser and an appropriate filter pair (excitation: 485 nm, emission: 538 nm) was used to record 5-s baseline followed by P2X4-mediated calcium influx measurements for 20–25 s after ATP stimulation (final concentration ranging between 0.03 and 100 μM in buffered solution, pH = 7.4). The collected responses were normalized to the first data-point recorded after ATP injection.
(§3) Data processing and data analysis were carried out using Graphpad Prism version 6 for Mac. Figures are presented as Mean ± SEM. Statistical significance of any difference observed between samples was calculated through one-way ANOVA followed by Dunnett’s multiple comparisons test with a single pooled variance (control, unless otherwise specified) or, when comparing only two sets of data, using an unpaired t-test with Welch’s correction. When comparing data obtained from multiple independent experiments (N), each dataset was normalized to the mean value obtained for the vehicle control.

[2] = target: T2, human P2X4 I312T (h4-I312T) (Homo sapiens, UniProt Q99571, I312T); experiment: ATP-induced calcium influx (Fluo-4) in 1321N1 cells stably expressing human P2X4 I312T; type: cell-based; conditions: 1321N1 cells, human P2X4 I312T
T2 construct: expressed in transfected cells; host or cells: 1321N1 astrocytoma cells, stably transfected
T2 sequence (Q99571 1-388 I312T): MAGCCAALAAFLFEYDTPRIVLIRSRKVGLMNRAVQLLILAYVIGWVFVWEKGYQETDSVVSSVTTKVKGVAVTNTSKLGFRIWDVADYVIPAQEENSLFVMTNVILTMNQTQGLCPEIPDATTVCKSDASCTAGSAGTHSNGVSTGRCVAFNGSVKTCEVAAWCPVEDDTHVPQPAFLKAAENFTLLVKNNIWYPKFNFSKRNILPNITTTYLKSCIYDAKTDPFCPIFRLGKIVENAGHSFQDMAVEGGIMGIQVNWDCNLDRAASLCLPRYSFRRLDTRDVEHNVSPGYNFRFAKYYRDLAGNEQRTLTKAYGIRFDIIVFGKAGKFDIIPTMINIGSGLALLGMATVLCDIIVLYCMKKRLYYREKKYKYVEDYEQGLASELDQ
Experimental: Plasmid encoding rat P2X4 (r4-WT) ([Royle et al., 2005]) was a kind gift from Ruth Murrell-Lagnado, whilst that encoding human P2X4 with a C-terminal (His)10 tag has been reported previously ([Young et al., 2008]).
as §1, with “FuGene HD Transfection Reagent (Promega) was used according to the manufacturer’s protocol for the generation of stable cell line expressing h4-WT, r4-WT, h4-I312T, and r4-T312I.” left out
as §2, with “To load cells with calcium-sensitive fluorescent dye, culture medium was replaced with modified Ringer’s buffer (140 mM NaCl, 10 mM HEPES, 10 mM Glucose, 1 mM MgCl2, 1 mM CaCl2, 2.5 mM KCl, 0.5% BSA, pH = 7.4) containing 2.6 μM FLUO4-AM (Fisher Scientific) and 250 μM probenecid (Sigma), and cells were incubated for 20–30 min.” left out
(§4) Data processing and data analysis were carried out using Graphpad Prism version 6 for Mac. Figures are presented as Mean ± SEM. […] When comparing data obtained from multiple independent experiments (N), each dataset was normalized to the mean value obtained for the vehicle control.

[3] = target: T3, rat P2X4 wild type (r4-WT) (Rattus norvegicus, UniProt P51577); experiment: ATP-induced calcium influx (Fluo-4) in 1321N1 cells stably expressing rat P2X4 wild type; type: cell-based; conditions: 1321N1 cells, rat P2X4 WT
T3 construct: expressed in transfected cells; host or cells: 1321N1 astrocytoma cells, stably transfected
T3 sequence (P51577 1-388): T1 sequence (P51577 1-388 T312I) with I312T
Experimental: as §1, §2, §3

[4] = target: T4, human P2X4 wild type (h4-WT) (Homo sapiens, UniProt Q99571); experiment: ATP-induced calcium influx (Fluo-4) in 1321N1 cells stably expressing human P2X4 wild type; type: cell-based; conditions: 1321N1 cells, human P2X4 WT
T4 construct: expressed in transfected cells; host or cells: 1321N1 astrocytoma cells, stably transfected
T4 sequence (Q99571 1-388): T2 sequence (Q99571 1-388 I312T) with T312I
Experimental: as §1, with “FuGene HD Transfection Reagent (Promega) was used according to the manufacturer’s protocol for the generation of stable cell line expressing h4-WT, r4-WT, h4-I312T, and r4-T312I.” left out
as §2, with “To load cells with calcium-sensitive fluorescent dye, culture medium was replaced with modified Ringer’s buffer (140 mM NaCl, 10 mM HEPES, 10 mM Glucose, 1 mM MgCl2, 1 mM CaCl2, 2.5 mM KCl, 0.5% BSA, pH = 7.4) containing 2.6 μM FLUO4-AM (Fisher Scientific) and 250 μM probenecid (Sigma), and cells were incubated for 20–30 min.” left out
as §4

hP2X4 = conditions: read-out: hP2X4 IC50, cited from earlier work
injury-induced allodynia = tested on: injury-induced allodynia; parameters: method as in Matsumura et al., 2016; Ushioda et al., 2020; conditions: ref Matsumura et al., 2016; Ushioda et al., 2020; cited from earlier work
P2X4 = tested on: P2X4; parameters: method as in Hernandez-Olmos et al., 2012; conditions: ref Hernandez-Olmos et al., 2012; cited from earlier work
[5] = ref Hernandez-Olmos et al., 2012; cited from earlier work
[6] = approximate value for the series, ref Matsumura et al., 2016, Ushioda et al., 2020, read-out: IC50 at mouse P2X4
[7] = ref Hernandez-Olmost et al. (2012)

SMILES: O=C1CN=C(c2cccc(Br)c2)c2oc3ccccc3c2N1 [5-BDBD]
capability of blocking the open channel (human P2X4 open channel): not | IC50 (rP2X4; ref Abdelrahman et al. (2017)): 3470 nM | IC50 (rP2X4; ref Coddou et al. (2019)): 750 nM | IC50 (mP2X4; ref Abdelrahman et al. (2017), read-out: mP2X4 IC50): 2040 nM

ATP pEC50 (± SEM) [1]: 6.136 (± 0.0645) | EC50 [1]: 730 nM | Hill coefficient (ATP concentration-response) [1]: 2.475 | ATP pEC50 (± SEM) [2]: 6.112 (± 0.028) | EC50 [2]: 770 nM | Hill coefficient (ATP concentration-response) [2]: 2.057 | ATP pEC50 (± SEM) [3]: 5.770 (± 0.0507) | EC50 [3]: 1700 nM | Hill coefficient (ATP concentration-response) [3]: 1.441 | ATP pEC50 (± SEM) [4]: 5.901 (± 0.0577) | EC50 [4]: 1260 nM | Hill coefficient (ATP concentration-response) [4]: 1.098
SMILES: Nc1ncnc2c1ncn2[C@@H]1O[C@H](COP(=O)(O)OP(=O)(O)OP(=O)(O)O)[C@@H](O)[C@H]1O [ATP]

SMILES: NS(=O)(=O)c1cc(NC(=O)Cc2ccccc2)ccc1Oc1cccc(Cl)c1 [BAY-1797, N-[4-(3-Chlorophenoxy)-3-sulfamoylphenyl]-2-phenylacetamide]
IC50 (rP2X4; ref Werner et al. (2019)): 100 nM | IC50 (mP2X4; ref Werner et al. (2019), read-out: mP2X4 IC50): 200 nM

SMILES: O=C(C1CC1)N1CCc2cc(Br)c(S(=O)(=O)Nc3ccc(Cl)c(C(F)(F)F)c3)cc21 [Indophagolin]
IC50 (hP2X4; ref Carnero Corrales et al. (2021)): 140 nM

SMILES: CC(C)c1ccc(NC(=S)NC(=O)C23CC4CC(CC(C4)C2)C3)c(Br)c1 [Mahmood-4n]
IC50 (hP2X4; ref Mahmood et al. (2022a)): 40 nM

SMILES: O=C(NC(=S)Nc1c(Br)ccc(C(F)(F)F)c1Br)c1ccc2c(c1)OCO2 [Mahmood-9g]
IC50 (hP2X4; ref Mahmood et al. (2022b)): 55 nM

SMILES: CC(C)c1ccc(NC(=S)NC(=O)c2ccc3c(c2)OCO3)c(Br)c1 [Mahmood-9o]
IC50 (hP2X4; ref Mahmood et al. (2022b)): 39 nM

SMILES: O=C1CC(=O)N(c2cccc(-c3noc(=S)[nH]3)c2)c2ccc3ccccc3c2N1 [NP-1815-PX]
effect in in vivo rodent model of injury-induced allodynia (injury-induced allodynia): anti-allodynic effect | IC50 (mP2X4; [6]): ~250 nM

SMILES: O=C1CC(=O)N(c2ccc(NS(=O)(=O)Cc3ccccc3Cl)cc2)c2ccc3ccccc3c2N1 [NP-A]
effect in in vivo rodent model of injury-induced allodynia (injury-induced allodynia): anti-allodynic effect | IC50 (mP2X4; [6]): ~250 nM

SMILES: O=C1CC(=O)N(c2ccc(NC(=O)c3ccccc3I)cc2)c2ccc3ccccc3c2N1 [NP-B]
IC50 (hP2X4; ref Matsumura et al., 2016, Ushioda et al., 2020): 430 nM | effect in in vivo rodent model of injury-induced allodynia (injury-induced allodynia): anti-allodynic effect | IC50 (mP2X4; [6]): ~250 nM

SMILES: O=C(OCc1ccccc1)N1c2ccccc2Oc2ccccc21 [PSB-12054]
potency as P2X4 antagonist (in words) (P2X4): low micromolar range | solubility (in words) [5]: partial solubility | IC50 (rP2X4; [7]): 2100 nM | IC50 (hP2X4; [7]): 190 nM | IC50 (mP2X4; ref Hernandez-Olmost et al. (2012), read-out: mP2X4 IC50): 1800 nM

SMILES: Cc1ccc(S(=O)(=O)N2c3ccccc3Oc3ccccc32)cc1 [PSB-12062]
potency as P2X4 antagonist (in words) (P2X4): low micromolar range

SMILES: Cc1c(-c2cccc(-c3nnn[nH]3)c2)c2[nH]c3ccccc3c2[nH]c1=O [Sunovion-A]
IC50 (hP2X4; ref Newcom and Spear (2013)): < 100 nM
